# Assay results reported in US20250332143A1, “COMPOSITION COMPRISING ALOX5 INHIBITOR FOR PREVENTING OR TREATING SARCOPENIA” (PLUTO Inc., priority 2022, published 2025).
# Key:
# [1] = system: differentiating C2C12 myoblasts; assay: Myogenesis of mouse myotubes differentiated in presence of compound; format: cell-based
# Protocol: C2C12 murine skeletal muscle myoblasts were obtained from Koram Biotech (Republic of Korea). The cells were maintained in DMEM growth medium supplemented with 10% FBS, 1% penicillin, and streptomycin. When myoblasts proliferated to approximately 90%, they were differentiated into muscle fibers by treating them with DMEM differentiation medium supplemented with 2% HS, 1% penicillin, and streptomycin for 96 hours. Differentiated muscle fibers were treated with 10 μM Dex for 24 hours to induce sarcopenia. To evaluate the degree of differentiation of muscle cells, differentiating myoblasts were treated with the corresponding compound in differentiation medium for 24 or 48 hours.
# The concentration of intracellular protein was measured using the Bradford assay (Bio-Rad, USA, CA), and electrophoresis was performed by loading on 10% and 12% polyacrylamide gels. Afterwards, the separated proteins were transferred to a PVDF membrane, and the primary antibody used was diluted 1:1000 in TBS-T containing 5% skim milk and incubated overnight at 4° C. Secondary antibodies were diluted 1:2000 and incubated for 35 minutes at room temperature (RT). Band intensity was measured using ImageJ 1.52 software (National Institutes of Health, USA), and intracellular protein was normalized to α-tubulin.
# For quantitative real-time PCR, transcript levels of genes of interest were analyzed using the StepOnePlus real-time PCR system (Applied Biosystems, UK). Total RNA was reverse transcribed to prepare cDNA using AccuPower® RT PreMix (Bioneer Corporation). […] Denaturation was performed at 95° C. for 15 s, annealing was performed at 60° C. for 1 min, and extension was performed at 72° C. for 20 s with fluorescence detection at 72° C. after each cycle. After the final cycle, melting point analysis of all samples was performed within the range of 60 to 95° C. using continuous fluorescence detection. […] Results were expressed as relative expression levels for each gene. The synthesized cDNA was amplified by quantitative real-time PCR (qRT-PCR) or standard PCR.
# [2] = system: Dex-treated C57BL/6J mice; assay: Dexamethasone-induced sarcopenia mouse model; format: in vivo
# Protocol: For quantitative real-time PCR, transcript levels of genes of interest were analyzed using the StepOnePlus real-time PCR system (Applied Biosystems, UK). Total RNA was reverse transcribed to prepare cDNA using AccuPower® RT PreMix (Bioneer Corporation). The obtained cDNA was subjected to real-time PCR according to the manufacturer's instructions with the following changes. PCR was performed in triplicate in a total volume of 20 μL 2× Power SYBR Green PCR Master Mix (Enzynomics, Republic of Korea) containing 200 nM (final concentration) of each specific primer and 1 μL of cDNA synthesized from 1 μg of total RNA. PCR amplification consisted of incubating the mixture at 95° C. for 10 minutes, followed by 40 cycles of denaturation, annealing, and extension. Denaturation was performed at 95° C. for 15 s, annealing was performed at 60° C. for 1 min, and extension was performed at 72° C. for 20 s with fluorescence detection at 72° C. after each cycle. After the final cycle, melting point analysis of all samples was performed within the range of 60 to 95° C. using continuous fluorescence detection. Specific cDNA samples were included in each run and used as reference material for comparison between runs. The expression level of GAPDH was used to calculate and normalize the expression levels of all other genes. Results were expressed as relative expression levels for each gene. The synthesized cDNA was amplified by quantitative real-time PCR (qRT-PCR) or standard PCR.
# An LTB4 ELISA kit was purchased from MyBioSource (CA, USA). The concentrations of LTB4 in skeletal muscles and cell lysates were measured by the enzyme-linked […] method according to the manufacturer's instructions. Samples (100 μL) were maintained at room temperature (RT) for 1 hour in 96 wells with polyclonal LTB4 antibody. Afterwards, an enzymatic reaction was performed to stop the process, and the absorbance was measured at 405 nm.
# 8. Dexamethasone-Induced Sarcopenia Mouse Model 12-week-old male C57BL/6J mice were divided into 3 groups of 5 each and treated with drugs as follows: 1) PBS with 5% DMSO and 5% Tween 80 (Vehicle group); 2) 15 mg/kg of Dexamethasone (at a concentration of 15 mg/kg, in PBS containing 5% DMSO and 5% Tween 80) (Dexamethasone group); and 3) 10 mg/kg of malotilate (at a concentration of 10 mg/kg, in PBS containing 15 mg/kg Dexamethasone, 5% DMSO, and 5% Tween 80) (Malotilate group). Those were injected intraperitoneally (solution volume=200 μL) for 2 weeks. Afterwards, the muscle function and conditions of the mice were analyzed.
# Grip strength was measured with the BIO-GS3 grip strength test meter (Bioseb, FL, USA). Grip strength was measured by placing the mouse on a grid and gently pulling it back with all four paws until the mouse fell off the grid. The trials were conducted with a time interval of 30 seconds, and the largest value among the three trials was selected as the representative muscle strength.
# Muscle fatigue was measured from two different models using Rotarod (Ugo Basile, Italy). One is a constant speed model that measures how long movement can be continued on a cylinder rotating at a constant speed, and the other model is an acceleration model that measures how fast the mouse can continue movement when the speed of the cylinder increases at regular intervals. Mice were trained to adapt from 5 rpm to 15 rpm one day before measurement in the above two models.
# Before sacrifice, mice were anesthetized by intraperitoneally administering 22 mg/kg Ketamine (Yuhan, Republic of Korea) and 10 mg/kg xylazine (Bayer, Republic of Korea) by IP injection, and then samples were collected. Quadriceps, gastrocnemius, tibialis anterior and soleus muscles were sampled and their weights were measured. The muscles sampled for immunohistostaining were cultured overnight at 4° C. with 4% paraformaldehyde, fixed, embedded in paraffin solution, and stored at −80° C. […]
# Alox5 = biological target: T1, Alox5 (Homo sapiens, UniProt P09917); conditions: cited from earlier work
# T1 sequence (P09917 1-674): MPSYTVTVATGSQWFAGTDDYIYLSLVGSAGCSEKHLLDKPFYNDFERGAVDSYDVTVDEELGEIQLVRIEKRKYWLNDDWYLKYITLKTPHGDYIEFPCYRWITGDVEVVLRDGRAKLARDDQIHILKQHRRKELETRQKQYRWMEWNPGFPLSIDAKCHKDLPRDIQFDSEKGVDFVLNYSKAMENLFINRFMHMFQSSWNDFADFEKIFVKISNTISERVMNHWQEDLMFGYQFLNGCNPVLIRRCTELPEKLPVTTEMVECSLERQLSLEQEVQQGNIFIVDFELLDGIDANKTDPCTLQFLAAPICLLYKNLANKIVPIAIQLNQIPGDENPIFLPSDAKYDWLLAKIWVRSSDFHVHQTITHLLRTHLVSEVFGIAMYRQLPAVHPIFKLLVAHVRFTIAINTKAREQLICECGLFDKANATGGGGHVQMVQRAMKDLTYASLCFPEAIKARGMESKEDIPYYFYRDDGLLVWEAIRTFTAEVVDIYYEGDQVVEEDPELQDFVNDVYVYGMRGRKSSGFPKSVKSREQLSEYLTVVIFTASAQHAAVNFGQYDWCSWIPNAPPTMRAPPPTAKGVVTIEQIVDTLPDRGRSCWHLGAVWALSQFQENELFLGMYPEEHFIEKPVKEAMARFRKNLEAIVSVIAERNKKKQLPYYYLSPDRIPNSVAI
# [3] = Dex-treated mice, 10 mg/kg intraperitoneally, 2 weeks
# [4] = Dex-treated mice, quadriceps, mRNA
smiles,measurement,setting,value
"CC(C)OC(=O)C(C(=O)OC(C)C)=C1SC=CS1 [malotilate, Malotilate]","expression of master gene regulators of the myogenic program (Pax7, Myf5, MyoG, Myh2)","[1]; after 24 h of treatment, qPCR",no significant changes
same,phosphorylation level of Akt,[1]; differentiated myotubes,not significantly altered
same,expression of differentiation marker Myh2,"[1]; during myogenesis, Western blot",not affected
same,grip strength,[2]; [3],significantly increased
same,"latency to fall, rotarod",[2]; [3],significantly increased
same,"maximum velocity, rotarod",[2]; [3],significantly increased
same,quadriceps muscle mass,[2]; [3],increased
same,soleus muscle mass,[2]; [3],increased
same,LTB4 level in muscle (ELISA),"[2]; Dex-treated mice, quadriceps",lowered
same,average muscle fiber cross sectional area (CSA),"[2]; Dex-treated mice, quadriceps",increased
same,proportion of fibers with larger CSA,"[2]; Dex-treated mice, quadriceps",increased
same,MuRF-1 expression in muscle,[2]; [4],reduced
same,atrogin-1 expression in muscle,[2]; [4],reduced
same,skeletal muscle atrophy,[2]; animal model of sarcopenia due to Dex treatment,inhibited
same,Alox5 inhibition selectivity,Alox5,selective inhibitor of Alox5
